In the supplement of paper PMC11208160:

Assay: recombinant UMI read abundance after kanamycin selection (control-corrected) (log10(CPM+1)); higher = more efficient recombination; extreme values may be limits of the assay; sequences stand for … in AGTGCAGAGAAAATCGGCCAGTTTTCTCTGCCTGCAGTCCGCATGCCGTGGGACCCCTTGGGTTCTAACCTGTTGCCTAGATTTATGCAGCGGACTGCCTTTCTCCCAAAGTGATAAACCGG…AGGTTGGTTTCACT; site = the 11-nt donor
Procedure, shortened: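 After plating on IPTG (0.07 mM) plus kanamycin, or unselected, in two replicates, recombinant UMIs were PCR-amplified across the donor–target junction and sequenced. The cells were Escherichia coli co-electroporated with a UMI-tagged donor and donor-binding-loop pair library and a target plasmid with a fixed target and T7-inducible IS621 bridge recombinase. Values are log10(CPM+1), with CPM averaged over replicates and scaled by control-derived factors.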

Row | Sequence | recombinant UMI read abundance (log10)
1 | TGGAAGACATGGACCGGTTTTCCCGGTAATCCGTATTTGCA (site AGGAAGACTTG) | 1.64
2 | TGGAAGACATGGACCGGTTTTCCCGGTAATCCGTATTTGCA (site CGGAAGACTTG) | 1.44
3 | TGGAAGACATGGACCGGTTTTCCCGGTAATCCGTATTTGCA (site GGGAAGACTTG) | 0
4 | TGGAAGACATGGACCGGTTTTCCCGGTAATCCGTATTTGCA (site TGGAAGACTTG) | 2.67
5 | TGGAAGTCATGGACCGGTTTTCCCGGTAATCCGTATTTGCA (site AGGAAGACTTG) | 0.00562
6 | TGGAAGTCATGGACCGGTTTTCCCGGTAATCCGTATTTGCA (site TGGAAGTCTTG) | 3.25
7 | TGGAATCCATGGACCGGTTTTCCCGGTAATCCGTATTTGTT (site AGGAATCCTAA) | 0
8 | TGGAATCCATGGACCGGTTTTCCCGGTAATCCGTATTTGTT (site CGGAATCCTAA) | 0
9 | TGGAATCCATGGACCGGTTTTCCCGGTAATCCGTATTTGTT (site GGGAATCCTAA) | 0
10 | TGGAATCCATGGACCGGTTTTCCCGGTAATCCGTATTTGTT (site TGGAATCCTAA) | 0
11 | TGGACGGCATGGACCGGTTTTCCCGGTAATCCGTATTTGGC (site TGGACGGCTGC) | 1.89
12 | TGGACGGCATGGACCGGTTTTCCCGGTAATCCGTATTTGGC (site TGGCCGGCTGC) | 0.327
13 | TGGACGGCATGGACCGGTTTTCCCGGTAATCCGTATTTGGC (site TGGGCGGCTGC) | 0
14 | TGGACGGCATGGACCGGTTTTCCCGGTAATCCGTATTTGGC (site TGGTCGGCTGC) | 0.392
15 | TGGACGTCATGGACCGGTTTTCCCGGTAATCCGTATTTGTT (site TGGACGTCTAA) | 0.483
16 | TGGACTACATGGACCGGTTTTCCCGGTAATCCGTATTTGAC (site AGGACTACTGT) | 0
17 | TGGACTACATGGACCGGTTTTCCCGGTAATCCGTATTTGAC (site CGGACTACTGT) | 0
18 | TGGACTACATGGACCGGTTTTCCCGGTAATCCGTATTTGAC (site GGGACTACTGT) | 0
19 | TGGACTACATGGACCGGTTTTCCCGGTAATCCGTATTTGAC (site TGGACTACTGT) | 1.55
20 | TGGACTCCATGGACCGGTTTTCCCGGTAATCCGTATTTGTT (site CGGAATCCTAA) | 0
21 | TGGACTCCATGGACCGGTTTTCCCGGTAATCCGTATTTGTT (site TGGACTCCTAA) | 0.214
22 | TGGAGCTCATGGACCGGTTTTCCCGGTAATCCGTATTTGCG (site TGGAGCTCTCG) | 2.13
23 | TGGATACCATGGACCGGTTTTCCCGGTAATCCGTATTTGCG (site TGGATACCTCG) | 0
24 | TGGCCTTCATGGACCGGTTTTCCCGGTAATCCGTATTTGGT (site TAGCCTTCTAC) | 0
25 | TGGCCTTCATGGACCGGTTTTCCCGGTAATCCGTATTTGGT (site TCGCCTTCTAC) | 1.02

Row | Sequence | recombinant UMI read abundance (log10)
26 | TGGCCTTCATGGACCGGTTTTCCCGGTAATCCGTATTTGGT (site TGGCCTTCTAC) | 0.00327
27 | TGGCCTTCATGGACCGGTTTTCCCGGTAATCCGTATTTGGT (site TTGCCTTCTAC) | 0.00662
28 | TGGCTGCCATGGACCGGTTTTCCCGGTAATCCGTATTTGGT (site TGGCTGCCTAC) | 0.0264
29 | TGGGAGTCATGGACCGGTTTTCCCGGTAATCCGTATTTGCC (site AGGGAGTCTGG) | 0
30 | TGGGAGTCATGGACCGGTTTTCCCGGTAATCCGTATTTGCC (site CGGGAGTCTGG) | 0
31 | TGGGAGTCATGGACCGGTTTTCCCGGTAATCCGTATTTGCC (site GGGGAGTCTGG) | 0.0303
32 | TGGGAGTCATGGACCGGTTTTCCCGGTAATCCGTATTTGCC (site TGGGAGTCTGG) | 2.34
33 | TGGGGACCATGGACCGGTTTTCCCGGTAATCCGTATTTGCG (site TGGGGACCTCG) | 0.00873
34 | TGGGGTACATGGACCGGTTTTCCCGGTAATCCGTATTTGGG (site TGGGGTACTCC) | 0.0151
35 | TGGGTACCATGGACCGGTTTTCCCGGTAATCCGTATTTGTT (site TGGGTACCTAA) | 0.0105
36 | TGGGTATCATGGACCGGTTTTCCCGGTAATCCGTATTTGCA (site TGGGTATCTTG) | 1.83
37 | TGGGTCCCATGGACCGGTTTTCCCGGTAATCCGTATTTGGT (site TGGGTCCCTAC) | 0.00844
38 | TGGTAGGCATGGACCGGTTTTCCCGGTAATCCGTATTTGGT (site TGATAGGCTAC) | 0.0183
39 | TGGTAGGCATGGACCGGTTTTCCCGGTAATCCGTATTTGGT (site TGCTAGGCTAC) | 0.00286
40 | TGGTAGGCATGGACCGGTTTTCCCGGTAATCCGTATTTGGT (site TGGTAGGCTAC) | 0.848
41 | TGGTAGGCATGGACCGGTTTTCCCGGTAATCCGTATTTGGT (site TGTTAGGCTAC) | 0.307
42 | TGGTGATCATGGACCGGTTTTCCCGGTAATCCGTATTTGGG (site TGGTGATCTCC) | 0.238
43 | TGGTGGACATGGACCGGTTTTCCCGGTAATCCGTATTTGTT (site TGGTGGACTAA) | 0.734
44 | TGGTTATCATGGACCGGTTTTCCCGGTAATCCGTATTTGGT (site TGGTTATCTAC) | 1.78
45 | TGGTTCGCATGGACCGGTTTTCCCGGTAATCCGTATTTGGA (site TGGTTCGCTTC) | 0.00761
46 | TGGTTTCCATGGACCGGTTTTCCCGGTAATCCGTATTTGCA (site TGGTTTCCTTG) | 0
47 | TGTAAGACATGGACCGGTTTTCCCGGTAATCCGTATTTGCG (site TGTAAGACTCG) | 0.934
48 | TGTAAGCCATGGACCGGTTTTCCCGGTAATCCGTATTTGAC (site TGTAAGCCTGT) | 0
49 | TGTACACCATGGACCGGTTTTCCCGGTAATCCGTATTTGCC (site TGTACACCTGA) | 0
50 | TGTACACCATGGACCGGTTTTCCCGGTAATCCGTATTTGCC (site TGTACACCTGC) | 0

Row | Sequence | recombinant UMI read abundance (log10)
51 | TGTACACCATGGACCGGTTTTCCCGGTAATCCGTATTTGCC (site TGTACACCTGG) | 0
52 | TGTACACCATGGACCGGTTTTCCCGGTAATCCGTATTTGCC (site TGTACACCTGT) | 0
53 | TGTACAGCATGGACCGGTTTTCCCGGTAATCCGTATTTGAA (site TGTACAGCTTT) | 0.369
54 | TGTACCACATGGACCGGTTTTCCCGGTAATCCGTATTTGTA (site TGTACCACTTA) | 0.131
55 | TGTAGACCATGGACCGGTTTTCCCGGTAATCCGTATTTGAC (site TGTAAACCTGT) | 0
56 | TGTAGACCATGGACCGGTTTTCCCGGTAATCCGTATTTGAC (site TGTACACCTGT) | 0
57 | TGTAGACCATGGACCGGTTTTCCCGGTAATCCGTATTTGAC (site TGTAGACCTGT) | 0
58 | TGTAGACCATGGACCGGTTTTCCCGGTAATCCGTATTTGAC (site TGTATACCTGT) | 0
59 | TGTAGGTCATGGACCGGTTTTCCCGGTAATCCGTATTTGAA (site TGTAGGTCTTT) | 0.238
60 | TGTAGGTCATGGACCGGTTTTCCCGGTAATCCGTATTTGGT (site TGTAGGTCTAC) | 0.355
61 | TGTATACCATGGACCGGTTTTCCCGGTAATCCGTATTTGAC (site TGTAAACCTGT) | 0
62 | TGTATACCATGGACCGGTTTTCCCGGTAATCCGTATTTGAC (site TGTACACCTGT) | 0
63 | TGTATACCATGGACCGGTTTTCCCGGTAATCCGTATTTGAC (site TGTAGACCTGT) | 0
64 | TGTATACCATGGACCGGTTTTCCCGGTAATCCGTATTTGAC (site TGTATACCTGT) | 0
65 | TGTCAGCCATGGACCGGTTTTCCCGGTAATCCGTATTTGGC (site TGTCAGCCTGC) | 0.0152
66 | TGTCCACCATGGACCGGTTTTCCCGGTAATCCGTATTTGAC (site TGTACACCTGT) | 0
67 | TGTCCACCATGGACCGGTTTTCCCGGTAATCCGTATTTGAC (site TGTCCACCTGT) | 0
68 | TGTCCACCATGGACCGGTTTTCCCGGTAATCCGTATTTGAC (site TGTGCACCTGT) | 0
69 | TGTCCACCATGGACCGGTTTTCCCGGTAATCCGTATTTGAC (site TGTTCACCTGT) | 0
70 | TGTCCAGCATGGACCGGTTTTCCCGGTAATCCGTATTTGTG (site TGTCCAGCTCA) | 0.0483
71 | TGTCCTACATGGACCGGTTTTCCCGGTAATCCGTATTTGTG (site TGTCCTACTCA) | 0.266
72 | TGTCGTCCATGGACCGGTTTTCCCGGTAATCCGTATTTGAG (site TGTCGTCCTCT) | 0.0062
73 | TGTGACGCATGGACCGGTTTTCCCGGTAATCCGTATTTGTG (site TGTGACGCTCA) | 0.239
74 | TGTGATGCATGGACCGGTTTTCCCGGTAATCCGTATTTGAC (site TGTGATGCTGT) | 1.65
75 | TGTGCTGCATGGACCGGTTTTCCCGGTAATCCGTATTTGTA (site TGTGCTGCTTA) | 0.0197
